From PubChem BioAssay (NCI) come the findings set out here.

What all share (assay): NCI anticancer screen, dose series, 48 h
Assay [1] has as its system A549 NSCLC.
Assay [2] concerns HCT-116 colon.
Assay [3] has as its system HCT-15 colon.
For assay [4], the system named is HOP-92 NSCLC.
Assay [5] relates to NCI-H226 lung.
Assay [6] has as its system OVCAR-8 ovarian.
Assay [7] concerns RPMI-8226 leukemia.
Assay [8] deals with SF-268 CNS.
Assay [9] concerns SF-295 CNS.
Assay [10] concerns SN12C renal.
The test system of assay [11] is U251 CNS.
The test system of assay [12] is UACC-257 melanoma.
Assay [13] relates to UACC-62 melanoma.
Assay [14] relates to CAKI-1 renal.
The test system of assay [15] is NCI-H23 lung.

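Compound exposure: 48 hours, 5 concentrations, 96-well plates. GI50 marks 50% less growth. TGI: total growth inhibition.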

Consider `COc1ccc(Cc2cc(Cc3ccc(OC)cc3)cc(Cc3ccc(OC)cc3)c2)cc1`, for which the TGI in [1], in assay [2], in [3], in assay [4], in [5] and in assay [6] was above 100 µM each time. For the same compound, the TGI in [7], in assay [8], in assay [9], in assay [10], in assay [11] and in assay [12] was above 100 µM each time. In assay [13], this compound came in with a TGI above 100 µM.
In the case of `CNc1cc([N+](=O)[O-])ccc1C(=O)N1CCC[C@H]1CO`, the TGI in assay [1], in assay [2], in assay [3], in assay [4], in assay [5] and in [6] was above 100 µM throughout. The TGI in assay [7], in assay [8], in [9], in [10], in [11] and in [12] was above 100 µM in each case. In addition, in [13], the TGI was above 100 µM.
For `CCOC(=O)C1=C(C)N(c2ccc(Cl)cc2)C2(O)C=CC(=O)C3=C(O)c4ccccc4C(=O)C312` (stereo unspecified), the TGI in assay [1] was 21.8 µM; in assay [14], 9.21 µM; in [2], 11.6 µM; in [3], 14 µM; in assay [4], 8.98 µM; in assay [15], 25.4 µM. In addition, the TGI in [6] worked out at 19.1 µM; in assay [7] it was 4.42 µM; in assay [8] it was 6.86 µM; in [9], 22.4 µM; in assay [10], 13.5 µM; in [11], 15.6 µM. For the same compound, the TGI in assay [12] amounted to 42.7 µM; in assay [13], 9.01 µM.
Consider `CC1(C)Cc2c(sc3[nH]c(=S)[nH]c(=S)c23)CS1`, for which the TGI is above 100 µM in assay [1]; above 100 µM in assay [14]; above 100 µM in assay [2]; above 100 µM in assay [3]; 50.4 µM in assay [4]; above 100 µM in assay [5]. Also, the TGI was above 100 µM in assay [15]; above 100 µM in assay [6]; 68.5 µM in assay [7]; above 100 µM in assay [8]; above 100 µM in assay [10]; above 100 µM in assay [11]. Further, the TGI in assay [12] stood at 73.8 µM; in assay [13], 67.4 µM.
Turning to `O=C(O)CCC(NC(=O)c1ccc(Nc2cnc3cc(C(F)(F)F)ccc3n2)cc1)C(=O)O` (stereo unspecified), the TGI in assay [1], in assay [2], in assay [3], in assay [4], in [5] and in [15] was above 100 µM in each case. In addition, the TGI in assay [6], in assay [7], in [8], in assay [9], in [10] and in assay [11] was above 100 µM throughout. Moreover, the TGI in [12] and in assay [13] was above 100 µM throughout.
`CCOC(=O)CN1C(=O)NC(C)(c2ccccc2)C1=O` (stereo unspecified): the TGI in assay [1], in assay [14], in assay [2], in assay [3], in assay [4] and in [15] was above 100 µM each time. Also, the TGI in [6], in assay [7], in assay [8], in [9], in assay [10] and in assay [11] was above 100 µM in each case. In addition, the TGI in assay [12] and in [13] was above 100 µM each time.
Regarding `ICC1CCCO1` (stereo unspecified), the TGI in assay [1], in assay [14], in assay [2], in [3], in [4] and in [5] was above 100 µM each time. Moreover, the TGI in [15], in assay [6], in [7], in assay [8], in [9] and in [10] was above 100 µM throughout. The TGI in [11] and in assay [12] was above 100 µM throughout.
In the case of `C=C1CN=C(Nc2ccc(Cl)cc2)S1`, the TGI in assay [1] is above 100 µM; in assay [14] it was above 10 µM; in assay [2] it was above 100 µM; in assay [3], above 100 µM; in assay [4], above 100 µM; in assay [15], above 100 µM. Moreover, the TGI in assay [6], in assay [7], in assay [8], in [9], in [10] and in assay [11] was above 100 µM each time. In assay [12], the TGI is above 100 µM.
Regarding `CC(=O)[O-].CC(=O)[O-].O=C(N/N=C/c1cc(Cl)cc(Cl)c1[OH2+])c1ccncc1.[Mn+2]`, the TGI in assay [1] turned out to be 79.7 µM; in assay [2], 17.7 µM; in assay [3] it was 25.1 µM; in [4], 9.91 µM; in assay [5], 12.1 µM; in [15], 21.9 µM. The TGI in [6] was determined as 10.1 µM; in assay [7], 8.88 µM; in [8], 27.2 µM; in assay [9], 7.48 µM; in [10], 21.2 µM; in [11] it was 24.3 µM. The TGI in assay [12] stood at 14.7 µM; in assay [13], 5.54 µM. For the same compound, the GI50 in assay [4] was 4.71 µM.
In the case of `CC1(C)CC[C@]2(C(=O)O)CC[C@]3(C)C(=CCC4=C5C[C@H](O)[C@H](O)[C@@](C)(CO)[C@@]5(C)CC[C@]43C)[C@@H]2C1`, the TGI in assay [1] was above 100 µM; in [14] it was 87.2 µM; in assay [2], above 100 µM; in assay [3], above 100 µM; in [4] it was above 100 µM; in assay [15], above 100 µM. Further, the TGI in assay [6], in assay [7], in [8], in assay [9], in assay [10] and in assay [11] was above 100 µM in each case. Further, the TGI in assay [12] and in [13] was above 100 µM in each case.
For the compound `O=C1CSC(c2ccccc2O)N1c1ccc2c(c1)Oc1c(Cl)c3c(c(Cl)c1=N2)Oc1cc(N2C(=O)CSC2c2ccccc2O)ccc1N=3` (stereo unspecified), the TGI in assay [14] is above 100 µM; in assay [2], above 100 µM; in [3], above 100 µM; in [4] it was 39.9 µM; in assay [5] it was above 100 µM; in assay [15], above 100 µM. For the same compound, the TGI in assay [6] is above 100 µM; in assay [7], above 100 µM; in [8] it was above 100 µM; in assay [9], above 100 µM; in assay [11] it was 65 µM; in [12], above 100 µM.
`COc1cccc(NC(=O)CSc2nnc(Cc3ccccc3)o2)c1`: the TGI in [1], in assay [14], in assay [2], in [3], in assay [5] and in assay [15] was above 100 µM each time. Besides, the TGI in assay [6], in [7], in [8], in [9], in assay [10] and in assay [11] was above 100 µM in each case. Also, the TGI in assay [12] and in assay [13] was above 100 µM each time.
Consider `O=C(c1cscc1CCc1ccccc1)c1cscc1CCc1ccccc1`, for which the TGI in assay [1], in assay [14], in assay [2], in assay [3], in assay [5] and in assay [15] was above 100 µM in each case. Besides, the TGI in assay [6], in assay [7], in assay [8], in assay [9], in assay [10] and in assay [11] was above 100 µM in each case. Further, the TGI in assay [12] and in assay [13] was above 100 µM each time.
Take `O=C(OCc1ccccc1)C(Cc1ccc(OCc2ccccc2)cn1)NC(=O)C(F)(F)F` (stereo unspecified): the TGI in assay [1], in [14], in [2], in assay [3], in assay [4] and in [5] was above 100 µM in each case. The TGI in [15], in [6], in assay [7], in [8], in assay [9] and in assay [10] was above 100 µM in each case. Moreover, the TGI in assay [11] and in [12] was above 100 µM throughout.
On to `CC(C)(C)OC(=O)N(O)[C@@H]1CC[C@H](n2cnc3c(N)ncnc32)C1`, for which the TGI in assay [1], in assay [2], in assay [3], in assay [4], in [5] and in assay [15] was above 100 µM each time. The TGI in [6], in [7], in [8], in assay [9], in [10] and in assay [11] was above 100 µM throughout. In addition, the TGI in [12] and in [13] was above 100 µM each time.
